Measurements reported in patent US9884823B2, “Oxime ether acetate compound, preparation method therefor and weeding application thereof” (ZHEJIANG UNIVERSITY OF TECHNOLOGY, priority 2014, dated 2018).
Where two headings read alike, the source gives them in different places.

What was measured:
Wheat = experiment: Culture dish method (general screening); type: in vivo; conditions: 100 mg/L, 7 days
Source text: (§3) Culture dish method (general screening): The test targets were radish, cucumber, rape, wheat, sorghum and barnyard grass; the seeds of wheat, sorghum and radish were germinated in advance, and the uniform emerge-germinating seeds were used in the test.

Chinese sorghum = experiment: Culture dish method (general screening); type: in vivo; conditions: 100 mg/L, 7 days
Source text: as §3

Barnyardgrass [1] = experiment: Culture dish method (general screening); type: in vivo, barnyard grass; conditions: 100 mg/L, 7 days
Source text: as §3

Cucumber = experiment: Culture dish method (general screening); type: in vivo; conditions: 100 mg/L, 7 days
Source text: as §3

Rape = experiment: Culture dish method (general screening); type: in vivo; conditions: 100 mg/L, 7 days
Source text: as §3

Radish = experiment: Culture dish method (general screening); type: in vivo; conditions: 100 mg/L, 7 days
Source text: as §3

Abutilon = experiment: Potted plants live body test; type: in vivo; conditions: 150 g a.i./ha
Source text: (§1) The raw drug which was selected from the compounds in table 1 was weighed using an analytical balance (0.0001 g), and dissolved in DMF containing 1 wt % Tween-80 emulsifier to prepare a mother liquor of raw drug with a mass concentration of 1.0˜5.0%, and then diluted with distilled water, to prepare preparations at desired concentrations according to the ratio of ingredients in Examples 8, 9 and 10.
(§2) The test targets were mustard, small quinoa, Abutilon, amaranthus retroflexus, Eclipta prostrata, crabgrass, dog point. A pot with a diameter of 7.5 cm was used, filled with composite soil (garden soil:nursery matrix, 1:2, v/v) to ¾ of the pot, then the above […] kinds of weeds targets were directly seeded (germination rate ≧85%), covered with soil at a thickness of 0.2 cm. When the weeds grew to 3-leaf stage, pre-emergence soil treatment for weeds planting, and then spraying was performed.

Crabgrass = experiment: Potted plants live body test; type: in vivo; conditions: 150 g a.i./ha
Source text: as §1, §2

Dog point = experiment: Potted plants live body test; type: in vivo; conditions: 150 g a.i./ha
Source text: as §1, §2

Eclipta prostrata = experiment: Potted plants live body test; type: in vivo; conditions: 150 g a.i./ha; for efficiency, Eclipta prostrata: 30 days, Table 9
Source text: as §1, §2

amaranthus retroflexus = experiment: Potted plants live body test; type: in vivo; conditions: 150 g a.i./ha
Source text: as §1, §2

Small quinoa = conditions: 150 g a.i./ha, 30 days, Table 9
Source text: as §1, §2

[2] = tested on: broadleaf weeds such as mustard, small quinoa, Abutilon, Amaranthus retroflexus and Eclipta prostrate; conditions: 150 g a.i./ha; for herbicidal activity on broadleaf weeds targets: 30 days after administration, Table 9 summary; for activity on the growth of broadleaf weeds: postemergence spraying, 30 days, vs clear water control
Source text: as §1, §2

[3] = tested on: grass weeds such as crabgrass, barnyard grass, dog point; conditions: 150 g a.i./ha; for activity for grass targets such as crabgrass and dog point: 30 days after administration, Table 9 summary; for activity on grass weeds such as crabgrass, dog point: postemergence spraying, 30 days
Source text: as §1, §2

Mustard = conditions: 150 g a.i./ha, 30 days, Table 9
Barnyardgrass [4] = experiment: Potted plants live body test; type: in vivo, barnyard grass; conditions: postemergence spraying; 150 g a.i./ha; Table 10
[5] = Postemergence spraying, 30 days, Table 9
[6] = Pre-emergence soil treatment, 30 days, Table 9
[7] = postemergence spraying, Table 10

CON=C(C(=O)OC)c1ccccc1COc1cccc(-c2cccc(C)n2)c1 [Compound 85]
inhibition rate, Wheat Root (Wheat): 60%
inhibition rate, Wheat Stem (Wheat): 20%
inhibition rate, Chinese sorghum Root (Chinese sorghum): 80%
inhibition rate, Chinese sorghum Stem (Chinese sorghum): 30%
inhibition rate, Barnyardgrass Root (Barnyardgrass [1]): 80%
inhibition rate, Barnyardgrass Stem (Barnyardgrass [1]): 0%
inhibition rate, Cucumber Root (Cucumber): 80%
inhibition rate, Cucumber Stem (Cucumber): 30%
inhibition rate, Rape Root (Rape): 80%
inhibition rate, Rape Stem (Rape): 50%
inhibition rate, Radish Root (Radish): 50%
inhibition rate, Radish Stem (Radish): 50%
efficiency, Abutilon (Abutilon; [5]): 50%
efficiency, Abutilon (Abutilon; [6]): 20%
efficiency, Crabgrass (Crabgrass; [5]): 0%
efficiency, Crabgrass (Crabgrass; [6]): 0%
efficiency, Dog point (Dog point; [5]): 0%
efficiency, Dog point (Dog point; [6]): 0%
efficiency, Eclipta prostrata (Eclipta prostrata; Postemergence spraying): 50%
efficiency, Eclipta prostrata (Eclipta prostrata; Pre-emergence soil treatment): 0%
efficiency, amaranthus retroflexus (amaranthus retroflexus; [5]): 0%
efficiency, amaranthus retroflexus (amaranthus retroflexus; [6]): 0%
efficiency, Small quinoa (Small quinoa; Postemergence spraying): 0%
efficiency, Small quinoa (Small quinoa; Pre-emergence soil treatment): 0%
herbicidal activity on broadleaf weeds targets [2]: herbicidal activity
activity on the growth of broadleaf weeds [2]: inhibitory activity
activity for grass targets such as crabgrass and dog point [3]: poor activity
activity on grass weeds such as crabgrass, dog point [3]: almost have no activity
efficiency, Mustard (Mustard; Postemergence spraying): 30%
efficiency, Mustard (Mustard; Pre-emergence soil treatment): 20%

CON=C(C(=O)OC)c1ccccc1COc1cccc(-c2ncc(Cl)cc2Cl)c1 [Compound 98]
inhibition rate, Wheat Root (Wheat): 20%
inhibition rate, Wheat Stem (Wheat): 0%
inhibition rate, Chinese sorghum Root (Chinese sorghum): 50%
inhibition rate, Chinese sorghum Stem (Chinese sorghum): 30%
inhibition rate, Barnyardgrass Root (Barnyardgrass [1]): 60%
inhibition rate, Barnyardgrass Stem (Barnyardgrass [1]): 20%
inhibition rate, Cucumber Root (Cucumber): 50%
inhibition rate, Cucumber Stem (Cucumber): 80%
inhibition rate, Rape Root (Rape): 50%
inhibition rate, Rape Stem (Rape): 80%
inhibition rate, Radish Root (Radish): 50%
inhibition rate, Radish Stem (Radish): 80%
efficiency, Abutilon (Abutilon; [5]): 80%
efficiency, Abutilon (Abutilon; [6]): 60%
efficiency, Crabgrass (Crabgrass; [5]): 0%
efficiency, Crabgrass (Crabgrass; [6]): 0%
efficiency, Dog point (Dog point; [5]): 0%
efficiency, Dog point (Dog point; [6]): 0%
efficiency, Eclipta prostrata (Eclipta prostrata; Postemergence spraying): 80%
efficiency, Eclipta prostrata (Eclipta prostrata; Pre-emergence soil treatment): 50%
efficiency, amaranthus retroflexus (amaranthus retroflexus; [5]): 80%
efficiency, amaranthus retroflexus (amaranthus retroflexus; [6]): 50%
efficiency, Small quinoa (Small quinoa; Postemergence spraying): 75%
efficiency, Small quinoa (Small quinoa; Pre-emergence soil treatment): 45%
herbicidal activity on broadleaf weeds targets [2]: herbicidal activity
activity on the growth of broadleaf weeds [2]: inhibitory activity
activity for grass targets such as crabgrass and dog point [3]: poor activity
activity on grass weeds such as crabgrass, dog point [3]: almost have no activity
efficiency, Mustard (Mustard; Postemergence spraying): 100%
efficiency, Mustard (Mustard; Pre-emergence soil treatment): 50%

CON=C(C(=O)OC)c1ccccc1COc1cccc(-c2nc(Cl)c(Cl)cc2Cl)c1 [Compound 99]
inhibition rate, Wheat Root (Wheat): 30%
inhibition rate, Wheat Stem (Wheat): 0%
inhibition rate, Chinese sorghum Root (Chinese sorghum): 50%
inhibition rate, Chinese sorghum Stem (Chinese sorghum): 50%
inhibition rate, Barnyardgrass Root (Barnyardgrass [1]): 50%
inhibition rate, Barnyardgrass Stem (Barnyardgrass [1]): 0%
inhibition rate, Cucumber Root (Cucumber): 70%
inhibition rate, Cucumber Stem (Cucumber): 0%
inhibition rate, Rape Root (Rape): 60%
inhibition rate, Rape Stem (Rape): 30%
inhibition rate, Radish Root (Radish): 60%
inhibition rate, Radish Stem (Radish): 50%
efficiency, Abutilon (Abutilon; [5]): 20%
efficiency, Abutilon (Abutilon; [6]): 0%
efficiency, Crabgrass (Crabgrass; [5]): 0%
efficiency, Crabgrass (Crabgrass; [6]): 0%
efficiency, Dog point (Dog point; [5]): 0%
efficiency, Dog point (Dog point; [6]): 0%
efficiency, Eclipta prostrata (Eclipta prostrata; Postemergence spraying): 25%
efficiency, Eclipta prostrata (Eclipta prostrata; Pre-emergence soil treatment): 0%
efficiency, amaranthus retroflexus (amaranthus retroflexus; [5]): 40%
efficiency, amaranthus retroflexus (amaranthus retroflexus; [6]): 0%
efficiency, Small quinoa (Small quinoa; Postemergence spraying): 50%
efficiency, Small quinoa (Small quinoa; Pre-emergence soil treatment): 30%
herbicidal activity on broadleaf weeds targets [2]: herbicidal activity
activity on the growth of broadleaf weeds [2]: inhibitory activity
activity for grass targets such as crabgrass and dog point [3]: poor activity
activity on grass weeds such as crabgrass, dog point [3]: almost have no activity
efficiency, Mustard (Mustard; Postemergence spraying): 60%
efficiency, Mustard (Mustard; Pre-emergence soil treatment): 0%

CON=C(C(=O)OC)c1ccccc1COc1cc(-c2ccccn2)ccc1C(F)(F)F [Compound 112]
inhibition rate, Wheat Root (Wheat): 0%
inhibition rate, Wheat Stem (Wheat): 0%
inhibition rate, Chinese sorghum Root (Chinese sorghum): 0%
inhibition rate, Chinese sorghum Stem (Chinese sorghum): 0%
inhibition rate, Barnyardgrass Root (Barnyardgrass [1]): 0%
inhibition rate, Barnyardgrass Stem (Barnyardgrass [1]): 0%
inhibition rate, Cucumber Root (Cucumber): 50%
inhibition rate, Cucumber Stem (Cucumber): 80%
inhibition rate, Rape Root (Rape): 50%
inhibition rate, Rape Stem (Rape): 80%
inhibition rate, Radish Root (Radish): 50%
inhibition rate, Radish Stem (Radish): 80%
efficiency, Abutilon (Abutilon; [5]): 50%
efficiency, Abutilon (Abutilon; [6]): 0%
efficiency, Crabgrass (Crabgrass; [5]): 0%
efficiency, Crabgrass (Crabgrass; [6]): 0%
efficiency, Dog point (Dog point; [5]): 0%
efficiency, Dog point (Dog point; [6]): 0%
efficiency, Eclipta prostrata (Eclipta prostrata; Postemergence spraying): 60%
efficiency, Eclipta prostrata (Eclipta prostrata; Pre-emergence soil treatment): 0%
efficiency, amaranthus retroflexus (amaranthus retroflexus; [5]): 80%
efficiency, amaranthus retroflexus (amaranthus retroflexus; [6]): 50%
efficiency, Small quinoa (Small quinoa; Postemergence spraying): 75%
efficiency, Small quinoa (Small quinoa; Pre-emergence soil treatment): 45%
herbicidal activity on broadleaf weeds targets [2]: herbicidal activity
activity on the growth of broadleaf weeds [2]: inhibitory activity
activity for grass targets such as crabgrass and dog point [3]: poor activity
activity on grass weeds such as crabgrass, dog point [3]: almost have no activity
efficiency, Mustard (Mustard; Postemergence spraying): 100%
efficiency, Mustard (Mustard; Pre-emergence soil treatment): 50%

CON=C(C(=O)OC)c1ccccc1COc1ccc(-c2cccc(C)n2)cc1 [Compound 120]
inhibition rate, Wheat Root (Wheat): 20%
inhibition rate, Wheat Stem (Wheat): 0%
inhibition rate, Chinese sorghum Root (Chinese sorghum): 50%
inhibition rate, Chinese sorghum Stem (Chinese sorghum): 30%
inhibition rate, Barnyardgrass Root (Barnyardgrass [1]): 60%
inhibition rate, Barnyardgrass Stem (Barnyardgrass [1]): 20%
inhibition rate, Cucumber Root (Cucumber): 70%
inhibition rate, Cucumber Stem (Cucumber): 30%
inhibition rate, Rape Root (Rape): 60%
inhibition rate, Rape Stem (Rape): 0%
inhibition rate, Radish Root (Radish): 50%
inhibition rate, Radish Stem (Radish): 0%
efficiency, Abutilon (Abutilon; [5]): 50%
efficiency, Abutilon (Abutilon; [6]): 0%
efficiency, Crabgrass (Crabgrass; [5]): 0%
efficiency, Crabgrass (Crabgrass; [6]): 0%
efficiency, Dog point (Dog point; [5]): 0%
efficiency, Dog point (Dog point; [6]): 0%
efficiency, Eclipta prostrata (Eclipta prostrata; Postemergence spraying): 30%
efficiency, Eclipta prostrata (Eclipta prostrata; Pre-emergence soil treatment): 0%
efficiency, amaranthus retroflexus (amaranthus retroflexus; [5]): 20%
efficiency, amaranthus retroflexus (amaranthus retroflexus; [6]): 0%
efficiency, Small quinoa (Small quinoa; Postemergence spraying): 60%
efficiency, Small quinoa (Small quinoa; Pre-emergence soil treatment): 50%
herbicidal activity on broadleaf weeds targets [2]: herbicidal activity
activity on the growth of broadleaf weeds [2]: inhibitory activity
activity for grass targets such as crabgrass and dog point [3]: poor activity
activity on grass weeds such as crabgrass, dog point [3]: almost have no activity
efficiency, Mustard (Mustard; Postemergence spraying): 40%
efficiency, Mustard (Mustard; Pre-emergence soil treatment): 20%

COc1cc(OC)nc(Oc2ccccc2CNc2ccc(C(=O)OC(C)C)cc2)n1 [Pyribambenz isopropyl, reference compound]
inhibition rate, Wheat Root (Wheat): 95%
inhibition rate, Wheat Stem (Wheat): 95%
inhibition rate, Chinese sorghum Root (Chinese sorghum): 100%
inhibition rate, Chinese sorghum Stem (Chinese sorghum): 90%
inhibition rate, Barnyardgrass Root (Barnyardgrass [1]): 100%
inhibition rate, Barnyardgrass Stem (Barnyardgrass [1]): 95%
inhibition rate, Cucumber Root (Cucumber): 95%
inhibition rate, Cucumber Stem (Cucumber): 90%
inhibition rate, Rape Root (Rape): 100%
inhibition rate, Rape Stem (Rape): 100%
inhibition rate, Radish Root (Radish): 100%
inhibition rate, Radish Stem (Radish): 90%
efficiency, Abutilon (Abutilon; [7]): 0%
efficiency, Crabgrass (Crabgrass; [7]): 50%
efficiency, Dog point (Dog point; [7]): 80%
efficiency, Eclipta prostrate (Eclipta prostrata; [7]): 0%
efficiency, amaranthus retroflexus (amaranthus retroflexus; [7]): 70%
efficiency, Barnyardgrass (Barnyardgrass [4]): 50%
